Here are results for two compounds from patent US20260068885A1, “HERBICIDAL COMPOSITIONS” (BAYER AKTIENGESELLSCHAFT, priority 2022, published 2026).

SMILES strings stand for the structures.

Test in all cases: Post-emergence herbicidal action against harmful plants (greenhouse)
Holding throughout (format): in vivo

The subject of assay [1] is Abutilon theophrasti (ABUTH). As to the method:
(§1) Seeds of monocotyledonous and dicotyledonous weed and crop plants are laid out in sandy loam soil in wood-fibre pots, covered with soil and cultivated in a greenhouse under good growth conditions. 2 to 3 weeks after sowing, the test plants are treated at the one-leaf stage. The compounds of the invention, formulated in the form of wettable powders (WP) or as emulsion concentrates (EC), are then sprayed onto the green parts of the plants in the form of an aqueous suspension or emulsion at a water application rate equivalent to 600 to 800 l/ha, with addition of 0.2% wetting agent. After the test plants have been […], the action of the preparations is assessed visually in comparison to untreated controls (herbicidal action in percent (%): 100% activity=the plants have died, 0% activity=like control plants). […] The tables below illustrate, in an illustrative manner, the post-emergence herbicidal action of the compounds of the invention, the herbicidal activity being stated in percent.
(§2) In the tables that follow, the abbreviations mean the following: • E: means the synergism value to be expected according to the Colby formula. • Δ SYN: means the difference between the actual and expected synergism value. • DAT: means days after treatment.

In the next assay the test system is Cyperus iria (CYPIR). The method, then:
as §1, §2

The subject of assay [2] is Erigeron bonariensis (ERIBO). The method, then: as §1, §2
Another assay concerns Setaria viridis (SETVI). As to the method:
as §1, §2

Assay [3] deals with Brachiaria platyphylla (BRAPP). The method, then: (§3) Seeds of monocotyledonous and dicotyledonous weed and crop plants are laid out in sandy loam soil in wood-fibre pots, covered with soil and cultivated in a greenhouse under good growth conditions. 2 to 3 weeks after sowing, the test plants are treated at the one-leaf stage. The compounds of the invention, formulated in the form of wettable powders (WP) or as emulsion concentrates (EC), are then sprayed onto the green parts of the plants in the form of an aqueous suspension or emulsion at a water application rate equivalent to 600 to 800 l/ha, with addition of 0.2% wetting agent. After the test plants have been left to stand in the greenhouse under optimal growth conditions for about 3 weeks, the action of the preparations is assessed visually in comparison to untreated controls (herbicidal action in percent (%): 100% activity=the plants have died, 0% activity=like control plants). […] The tables below illustrate, in an illustrative manner, the post-emergence herbicidal action of the compounds of the invention, the herbicidal activity being stated in percent.
as §2

The subject of a further assay is Emex australis (EMEAU). As to conditions: EMEAU 21 DAT. As to the method: as §3, §2
For assay [4], the system named is Sorghum halepense (SORHA). As to the method:
as §3, §2

In assay [5] the test system is Xanthium strumarium (XANST). The method, then: as §3, §2
The subject of assay [6] is Pharbitis purpurea (PHBPU). The note with it: 5 g a.i./ha.
Assay [7] deals with Polygonum convolvulus (POLCO).
Assay [8] has as its system Xanthium strumarium (XANST). The note with it: 10 DAT.
Another assay deals with Solanum nigrum (SOLNI). The method, then: as §1, §2

For `CCn1ncc(C(=O)c2ccc(S(C)(=O)=O)c(COCC(F)(F)F)c2Cl)c1OC(=O)c1cn(C)nc1C` [fenpyrazone], the Herbicidal efficacy in assay [1] (ABUTH 21 DAT, 20 g a.i./ha) is 30%; in the assay on Cyperus iria (CYPIR) (CYPIR 10 DAT, 5 g a.i./ha) it was 30%; in the assay on Cyperus iria (CYPIR) (CYPIR 10 DAT, 20 g a.i./ha), 20%; in the assay on Cyperus iria (CYPIR) (CYPIR 21 DAT, 5 g a.i./ha) it was 30%; with Cyperus iria (CYPIR) (CYPIR 21 DAT, 20 g a.i./ha) it was 10%; in [2] (ERIBO 21 DAT, 5 g a.i./ha) it was 80%. Also, the Herbicidal efficacy in assay [2] (ERIBO 21 DAT, 20 g a.i./ha) stood at 80%; in the assay with Setaria viridis (SETVI) (SETVI 10 DAT, 5 g a.i./ha) it was 30%; in the assay on Setaria viridis (SETVI) (SETVI 10 DAT, 20 g a.i./ha), 50%; with Setaria viridis (SETVI) (SETVI 21 DAT, 5 g a.i./ha), 20%; in the assay on Setaria viridis (SETVI) (SETVI 21 DAT, 20 g a.i./ha) it was 20%; in [3] (BRAPP 10 DAT, 5 g a.i./ha), 30%. Moreover, the Herbicidal efficacy turned out to be 75% in [3] (BRAPP 10 DAT, 20 g a.i./ha); 10% in assay [3] (BRAPP 21 DAT, 5 g a.i./ha); 20% in assay [3] (BRAPP 21 DAT, 20 g a.i./ha); 0% in the assay on Emex australis (EMEAU) (20 g a.i./ha); 0% in [6] (PHBPU 10 DAT); 0% in assay [6] (PHBPU 21 DAT). For the same compound, the Herbicidal efficacy in assay [7] (POLCO 10 DAT, 5 g a.i./ha) turned out to be 0%; in assay [7] (POLCO 21 DAT, 5 g a.i./ha) it was 0%; in [7] (POLCO 21 DAT, 20 g a.i./ha) it was 10%. For the same compound, the “Herbicidal efficacy [%] against SORHA 10 DAT” value stood at 20% in [4] (application rate 5 g a.i./ha) and 30% in assay [4] (application rate 20 g a.i./ha). The “Herbicidal efficacy [%] against SORHA 21 DAT” value in assay [4] (application rate 5 g a.i./ha) stood at 10%; in assay [4] (application rate 20 g a.i./ha), 20%. In addition, the “Herbicidal efficacy [%] against XANST 21 DAT” value in assay [5] (application rate 20 g a.i./ha) stood at 70%. Besides, the “Herbicidal efficacy [%] against XANST 10 DAT” value in assay [8] (application rate 20 g a.i./ha) turned out to be 88%.
`C=C[C@]1(C(=O)N[C@H]2C=C[C@@H](C(=O)OC)C2)CC(c2cc(F)cc(F)c2)=NO1` [P2, methyl (1S,4R)-4-[[(5S)-3-(3,5-difluorophenyl)-5-vinyl-4H-isoxazole-5-carbonyl]amino]cyclopent-2-ene-1-carboxylate]: the Herbicidal efficacy is listed as 20% in assay [1] (ABUTH 10 DAT, 0.3 g a.i./ha); 30% in assay [1] (ABUTH 10 DAT, 1.2 g a.i./ha); 10% in assay [1] (ABUTH 21 DAT, 0.3 g a.i./ha); 20% in assay [1] (ABUTH 21 DAT, 1.2 g a.i./ha); 50% in the assay with Cyperus iria (CYPIR) (CYPIR 10 DAT, 0.3 g a.i./ha); 88% with Cyperus iria (CYPIR) (CYPIR 10 DAT, 1.2 g a.i./ha). Besides, the Herbicidal efficacy in the assay on Cyperus iria (CYPIR) (CYPIR 21 DAT, 0.3 g a.i./ha) was 40%; in the assay on Cyperus iria (CYPIR) (CYPIR 21 DAT, 1.2 g a.i./ha), 88%; in assay [2] (ERIBO 10 DAT, 0.3 g a.i./ha), 0%; in [2] (ERIBO 21 DAT, 0.3 g a.i./ha), 0%; in the assay on Solanum nigrum (SOLNI) (SOLNI 10 DAT, 0.3 g a.i./ha), 60%; with Solanum nigrum (SOLNI) (SOLNI 21 DAT, 1.2 g a.i./ha), 40%. The Herbicidal efficacy in assay [3] (BRAPP 21 DAT, 0.3 g a.i./ha) amounted to 85%; in the assay with Emex australis (EMEAU) (0.3 g a.i./ha), 88%; in the assay with Emex australis (EMEAU) (1.2 g a.i./ha) it was 88%; in assay [7] (POLCO 21 DAT, 0.3 g a.i./ha), 90%. For the same compound, the “Herbicidal efficacy [%] against SORHA 10 DAT” value in assay [4] (application rate 0.3 g a.i./ha) stood at 80%. For the same compound, in assay [5] (application rate 0.3 g a.i./ha), the “Herbicidal efficacy [%] against XANST 21 DAT” value turned out to be 10%. In assay [8] (application rate 0.3 g a.i./ha), the “Herbicidal efficacy [%] against XANST 10 DAT” value was determined as 20%.
